Experimental data taken from ChEMBL document CHEMBL2380247, “Synthesis and biological evaluation of novel aliphatic amido-quaternary ammonium salts for anticancer chemotherapy: part II” (2013).
Activity calls are given as the source filed them. The rule behind the calls is not given here.

Experiments:
[1] = tested on: NUGC-3; experiment: Antiproliferative activity against human NUGC3 cells at 0.3 uM by SRB assay; assay type: functional
[2] = tested on: NUGC-3; experiment: Antiproliferative activity against human NUGC3 cells at 0.1 uM by SRB assay; assay type: functional
[3] = tested on: NUGC-3; experiment: Antiproliferative activity against human NUGC3 cells at 1 uM by SRB assay; assay type: functional
[4] = tested on: NUGC-3; experiment: Antiproliferative activity against human NUGC3 cells at 10 uM by SRB assay; assay type: functional
[5] = tested on: NUGC-3; experiment: Antiproliferative activity against human NUGC3 cells at 3 uM by SRB assay; assay type: functional
[6] = tested on: MDA-MB-231; experiment: Antiproliferative activity against human MDA-MB-231 cells at 0.1 uM by SRB assay; assay type: functional
[7] = tested on: MDA-MB-231; experiment: Antiproliferative activity against human MDA-MB-231 cells at 0.3 uM by SRB assay; assay type: functional
[8] = tested on: MDA-MB-231; experiment: Antiproliferative activity against human MDA-MB-231 cells at 1 uM by SRB assay; assay type: functional
[9] = tested on: MDA-MB-231; experiment: Antiproliferative activity against human MDA-MB-231 cells at 10 uM by SRB assay; assay type: functional
[10] = tested on: MDA-MB-231; experiment: Antiproliferative activity against human MDA-MB-231 cells at 3 uM by SRB assay; assay type: functional
[11] = tested on: ACHN; experiment: Antiproliferative activity against human ACHN cells at 0.1 uM by SRB assay; assay type: functional
[12] = tested on: ACHN; experiment: Antiproliferative activity against human ACHN cells at 1 uM by SRB assay; assay type: functional
[13] = tested on: ACHN; experiment: Antiproliferative activity against human ACHN cells at 0.3 uM by SRB assay; assay type: functional
[14] = tested on: ACHN; experiment: Antiproliferative activity against human ACHN cells at 3 uM by SRB assay; assay type: functional
[15] = tested on: ACHN; experiment: Antiproliferative activity against human ACHN cells at 10 uM by SRB assay; assay type: functional
[16] = tested on: NCI-H23; experiment: Antiproliferative activity against human NCI-H23 cells at 0.3 uM by SRB assay; assay type: functional
[17] = tested on: NCI-H23; experiment: Antiproliferative activity against human NCI-H23 cells at 0.1 uM by SRB assay; assay type: functional
[18] = tested on: NCI-H23; experiment: Antiproliferative activity against human NCI-H23 cells at 3 uM by SRB assay; assay type: functional
[19] = tested on: NCI-H23; experiment: Antiproliferative activity against human NCI-H23 cells at 1 uM by SRB assay; assay type: functional
[20] = tested on: NCI-H23; experiment: Antiproliferative activity against human NCI-H23 cells at 10 uM by SRB assay; assay type: functional
[21] = tested on: PC-3; experiment: Antiproliferative activity against human PC3 cells at 0.1 uM by SRB assay; assay type: functional
[22] = tested on: PC-3; experiment: Antiproliferative activity against human PC3 cells at 1 uM by SRB assay; assay type: functional
[23] = tested on: PC-3; experiment: Antiproliferative activity against human PC3 cells at 0.3 uM by SRB assay; assay type: functional
[24] = tested on: PC-3; experiment: Antiproliferative activity against human PC3 cells at 3 uM by SRB assay; assay type: functional
[25] = tested on: HCT-15; experiment: Antiproliferative activity against human HCT15 cells at 0.1 uM by SRB assay; assay type: functional
[26] = tested on: PC-3; experiment: Antiproliferative activity against human PC3 cells at 10 uM by SRB assay; assay type: functional
[27] = tested on: HCT-15; experiment: Antiproliferative activity against human HCT15 cells at 0.3 uM by SRB assay; assay type: functional
[28] = tested on: HCT-15; experiment: Antiproliferative activity against human HCT15 cells at 3 uM by SRB assay; assay type: functional
[29] = tested on: HCT-15; experiment: Antiproliferative activity against human HCT15 cells at 1 uM by SRB assay; assay type: functional
[30] = tested on: HCT-15; experiment: Antiproliferative activity against human HCT15 cells at 10 uM by SRB assay; assay type: functional
[31] = biological target: Rho-related GTP-binding protein RhoB (Homo sapiens) (UniProt P62745); experiment: Inhibition of RhoB transactivation in human HeLa cells by luciferase reporter assay; assay type: cell-based
[32] = biological target: Rho-related GTP-binding protein RhoB (Homo sapiens) (UniProt P62745); experiment: Transactivation of RhoB in human HeLa cells by luciferase reporter assay; assay type: cell-based
[33] = tested on: NCI-H23; experiment: Antiproliferative activity against human NCI-H23 cells by SRB assay; assay type: functional
[34] = tested on: NUGC-3; experiment: Antiproliferative activity against human NUGC3 cells by SRB assay; assay type: functional
[35] = tested on: HCT-15; experiment: Antiproliferative activity against human HCT15 cells by SRB assay; assay type: functional
[36] = tested on: ACHN; experiment: Antiproliferative activity against human ACHN cells by SRB assay; assay type: functional
[37] = tested on: MDA-MB-231; experiment: Antiproliferative activity against human MDA-MB-231 cells by SRB assay; assay type: functional
[38] = tested on: PC-3; experiment: Antiproliferative activity against human PC3 cells by SRB assay; assay type: functional

Chain of Rho-related GTP-binding protein RhoB (Homo sapiens) (P62745 whole entry): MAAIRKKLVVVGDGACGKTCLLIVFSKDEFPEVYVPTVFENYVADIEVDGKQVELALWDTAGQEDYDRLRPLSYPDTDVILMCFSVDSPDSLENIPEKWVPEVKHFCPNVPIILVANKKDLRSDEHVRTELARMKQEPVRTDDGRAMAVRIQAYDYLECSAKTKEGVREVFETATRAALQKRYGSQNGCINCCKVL

| SMILES | growth, % of control at 0.3 µM [1] | growth, % of control at 0.1 µM [2] | growth, % of control at 1 µM [3] | growth, % of control at 10 µM [4] | growth, % of control at 3 µM [5] | growth, % of control at 0.1 µM [6] | growth, % of control at 0.3 µM [7] | growth, % of control at 1 µM [8] | growth, % of control at 10 µM [9] | growth, % of control at 3 µM [10] | growth, % of control at 0.1 µM [11] | growth, % of control at 1 µM [12] | growth, % of control at 0.3 µM [13] | growth, % of control at 3 µM [14] | growth, % of control at 10 µM [15] | growth, % of control at 0.3 µM [16] | growth, % of control at 0.1 µM [17] | growth, % of control at 3 µM [18] | growth, % of control at 1 µM [19] | growth, % of control at 10 µM [20] | also measured |
| --- | --- | --- | --- | --- | --- | --- | --- | --- | --- | --- | --- | --- | --- | --- | --- | --- | --- | --- | --- | --- | --- |
| CCCCCCCCCCCCCCCCCC(=O)N(C)CC[N+](C)(C)C | 49% | 77.9% | 10.4% | -18.7% | 2.4% | 90.6% | 84.2% | 77.2% | 12.8% | 37% | 81.8% | 44.6% | 71.3% | 23.4% | -15.6% | 90.2% | 94.3% | 51.6% | 84.4% | 11.1% | growth, % of control at 0.1 µM [21]: 93.2%; growth, % of control at 1 µM [22]: 39.3%; growth, % of control at 0.3 µM [23]: 91.9%; growth, % of control at 3 µM [24]: 1.1%; growth, % of control at 0.1 µM [25]: 92.9%; growth, % of control at 10 µM [26]: -11.6%; growth, % of control at 0.3 µM [27]: 98.6%; growth, % of control at 3 µM [28]: 25.4%; growth, % of control at 1 µM [29]: 61.4%; growth, % of control at 10 µM [30]: 20.5%; inhibition [31]: Active; Activity [32]: Active; GI50 [33]: 1.52 µM; GI50 [34]: 0.14 µM; GI50 [35]: 0.8 µM; GI50 [36]: 0.36 µM; GI50 [37]: 1.07 µM; GI50 [38]: 0.42 µM |
| CCCCCCCCCCCCCCCCCC(=O)NCCC[N+](C)(C)C | 93% | 98.4% | 63.8% | 15.3% | 37.7% | 96% | 98.1% | 92.5% | 29.9% | 59.9% | 99.2% | 85% | 101% | 64.3% | 42.8% | 103% | 102% | 56.5% | 90.7% | 5.43% | growth, % of control at 0.1 µM [21]: 97.5%; growth, % of control at 1 µM [22]: 51.3%; growth, % of control at 0.3 µM [23]: 97.7%; growth, % of control at 3 µM [24]: 3.63%; growth, % of control at 0.1 µM [25]: 90.7%; growth, % of control at 10 µM [26]: -14.7%; growth, % of control at 0.3 µM [27]: 86.5%; growth, % of control at 3 µM [28]: 30.8%; growth, % of control at 1 µM [29]: 64.3%; growth, % of control at 10 µM [30]: 11.2%; inhibition [31]: Active; Activity [32]: Active; GI50 [33]: 1.68 µM; GI50 [34]: 0.97 µM; GI50 [35]: 0.79 µM; GI50 [36]: 3.4 µM; GI50 [37]: 2.41 µM; GI50 [38]: 0.52 µM |
| CCCCCCCCCCCCCC(=O)NCCC[N+](C)(C)C | 73.2% | 84.9% | 46.7% | 14.8% | 28.7% | 83.4% | 81.2% | 80.6% | 19.1% | 58.1% | 83.3% | 77.1% | 77.2% | 58.1% | 25.4% | 96.4% | 99.4% | 39.8% | 80.9% | -15.6% | growth, % of control at 0.1 µM [21]: 85.2%; growth, % of control at 1 µM [22]: 44.6%; growth, % of control at 0.3 µM [23]: 87.3%; growth, % of control at 3 µM [24]: -4.97%; growth, % of control at 0.1 µM [25]: 83.5%; growth, % of control at 10 µM [26]: -22.8%; growth, % of control at 0.3 µM [27]: 82.5%; growth, % of control at 3 µM [28]: 33%; growth, % of control at 1 µM [29]: 71.6%; growth, % of control at 10 µM [30]: 14.7%; Activity [32]: Active; GI50 [33]: 1.02 µM; GI50 [34]: 0.43 µM; GI50 [35]: 0.79 µM; GI50 [36]: 1.56 µM; GI50 [37]: 1.48 µM; GI50 [38]: 0.39 µM |
| CCCCCCCCCCCCCC(=O)N(C)CC[N+](C)(C)C | 70.9% | 100% | 22.5% | -11.9% | -3.9% | 98.5% | 94.7% | 74.2% | 5.2% | 26.6% | 84.4% | 34.4% | 73.3% | 9.6% | -15.9% | 80.1% | 99.8% | 36.1% | 79.7% | 4.1% | growth, % of control at 0.1 µM [21]: 96.6%; growth, % of control at 1 µM [22]: 38.4%; growth, % of control at 0.3 µM [23]: 96.4%; growth, % of control at 3 µM [24]: -4.8%; growth, % of control at 0.1 µM [25]: 91%; growth, % of control at 10 µM [26]: -21.7%; growth, % of control at 0.3 µM [27]: 90.4%; growth, % of control at 3 µM [28]: 53.1%; growth, % of control at 1 µM [29]: 82.4%; growth, % of control at 10 µM [30]: 19.2%; Activity [32]: Active; GI50 [33]: 0.92 µM; GI50 [34]: 0.22 µM; GI50 [35]: 1.47 µM; GI50 [36]: 0.26 µM; GI50 [37]: 0.8 µM; GI50 [38]: 0.41 µM |
